Here are results for one molecule from PMC5078989, “Targeted inhibition of the COP9 signalosome for treatment of cancer” (Nature Communications, 2016).

The structures appear in SMILES notation.

For one experiment, the target named is T1, human MMP1 (Homo sapiens, UniProt P03956).
T1 construct: Human MMP1 (Uniprot P03956), amino acids 1–469; made in house; host or cells: stably transfected C127 cells
T1 sequence (P03956 20-469): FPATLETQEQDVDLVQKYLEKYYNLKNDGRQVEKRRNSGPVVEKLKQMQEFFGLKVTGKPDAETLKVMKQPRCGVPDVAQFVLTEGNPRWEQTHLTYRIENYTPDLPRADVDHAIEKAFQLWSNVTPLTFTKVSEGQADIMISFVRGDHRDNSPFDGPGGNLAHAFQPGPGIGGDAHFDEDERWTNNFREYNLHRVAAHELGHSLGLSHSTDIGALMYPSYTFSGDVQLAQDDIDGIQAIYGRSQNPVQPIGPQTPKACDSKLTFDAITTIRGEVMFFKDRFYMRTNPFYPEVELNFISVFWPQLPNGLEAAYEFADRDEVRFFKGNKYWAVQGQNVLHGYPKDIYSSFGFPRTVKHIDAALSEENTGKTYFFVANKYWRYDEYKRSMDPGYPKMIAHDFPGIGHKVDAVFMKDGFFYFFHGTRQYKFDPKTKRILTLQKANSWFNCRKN
Description: Selectivity assay MMP1. The class given is biochemical. The method, then:
All biochemical assays were performed at room temperature in 384-well plates in a total volume of 25.25 μl per well. Test compounds were dissolved in 90% (v/v) DMSO/water. For the assays, 250 nl of compound solution was added per well, followed by addition of 12.5 μl protease solution. After 70 min of pre-incubation at room temperature, the reactions were started by addition of 12.5 μl substrate solution and followed either by measuring fluorescence intensity (rhodamine 110-based substrates) or by fluorescence lifetime (PT14-based substrates). The effect of compound on enzymatic activity was obtained from the linear part of the progress curves and determined after 1 h (t=60 min). The final compound concentrations ranged from 100 μM to 1 nM.
Matrix metalloproteinases. […]

A further experiment has as its system HCT116 cells. Kind of experiment: Cell viability assay (CellTiter-Glo), HCT116. In kind it is cell-based, human. The note with it: HCT116, 72 h; cytotoxic. How it is done: (§1) Cells were maintained in a humidified incubator at 37 °C and 5% CO2. […] All cells were negatively tested for mycoplasma contamination either by the vendor or in house. […] If not stated otherwise, cells were harvested after incubation for 16 h and subjected to SDS-PAGE and western blotting. The RNA interference experiment was performed with CSN5 stealth siRNA (#HSS116986) and stealth negative control siRNA (#12935-400) (Invitrogen), which were transfected at 10 nM into HCT116 cells using […] (Qiagen) according to the manufacturer's protocols. Seventy-two hours after transfection, cells were harvested and subjected to SDS-PAGE and western blotting (see Supplementary Fig. 7 for all western blottings performed). A standardized CellTiter-Glo Assay (Promega #G7570) based on the quantification of ATP was applied according to the manufacturer's protocol to measure the amount of viable cells in culture. In brief, cells were seeded into 384-well plates at optimal density for each cell line. After 4 h, compounds were added at different concentrations in growth medium and incubated for another 72 h in a humidifying chamber at 37 °C and 5% CO2. Eventually, equal amounts of CellTiter-Glo reagent were added directly to the cells, incubated for 15 min and luminescence was recorded using PHERAstar plate reader (BMG LABTECH GmbH).
On the technique in general: In ATP-based viability assays light output follows the ATP content of the culture.

The next experiment deals with SU-DHL-1 cells. Description: Cell viability assay (CellTiter-Glo), SU-DHL-1. In kind it is cell-based, human. The method, then: as §1

By IC50 is commonly meant the concentration that gives 50% inhibition. In general, EC50 refers to the concentration needed to bring the measured effect to its halfway point. Take `CC(C)n1nc(C(F)F)cc1C(=O)Nc1ccc([C@H]2[C@@H](O)CCCc3cncn32)c(-c2ccccc2)c1` [CSN5i-3, 3-(Difluoromethyl)-N-(6-((5S,6S)-6-hydroxy-6,7,8,9-tetrahydro-5H-imidazo[1,5-a]azepin-5-yl)-[1,1′-biphenyl]-3-yl)-1-isopropyl-1H-pyrazole-5-carboxamide]: the IC50 at human MMP1 was greater than 100000 nM. Further, the AMAX with HCT116 cells is given as no more than −95%; in the experiment on SU-DHL-1 cells (SU-DHL-1 in vitro, 72 h), no more than −95%. The EC50 in the experiment with SU-DHL-1 cells (Homo sapiens, SU-DHL-1, 72 h, read-out: EC50 cell viability) stood at 13 nM.
